The values that follow come from the kinase profiling compilation of Christmann-Franck et al. (2016).

Some targets named below: RPS6KA4 KD2 (human) (UniProt O75676); CDK7 (human) (UniProt P50613); CSNK2A1 (human) (UniProt P68400); CLK3 (human) (UniProt P49761); MINK1 (human) (UniProt Q8N4C8); ACVR2A (human) (UniProt P27037); CLK4 (human) (UniProt Q9HAZ1); ACVR2B (human) (UniProt Q13705); MAP2K3 (human) (UniProt P46734); DAPK3 (human) (UniProt O43293); CSNK2A2 (human) (UniProt P19784); MAPK15 (human) (UniProt Q8TD08); DAPK1 (human) (UniProt P53355); BMP2K (human) (UniProt Q9NSY1); SRPK3 (human) (UniProt Q9UPE1); PIM3 (human) (UniProt Q86V86); PLK4 (human) (UniProt O00444); CLK1 (human) (UniProt P49759); CHUK (human) (UniProt O15111); TAOK1 (human) (UniProt Q7L7X3); CLK2 (human) (UniProt P49760); BMPR1B (human) (UniProt O00238); NEK2 (human) (UniProt P51955); AAK1 (human) (UniProt Q2M2I8); TAOK3 (human) (UniProt Q9H2K8); STK17B (human) (UniProt O94768); DAPK2 (human) (UniProt Q9UIK4); RIOK1 (human) (UniProt Q9BRS2); PIP4K2B (human) (UniProt P78356); MAP2K4 (human) (UniProt P45985); RPS6KA5 KD2 (human) (UniProt O75582); STK17A (human) (UniProt Q9UEE5); PIM2 (human) (UniProt Q9P1W9); HIPK1 (human) (UniProt Q86Z02); RIOK3 (human) (UniProt O14730); PIM1 (human) (UniProt P11309); DYRK1B (human) (UniProt Q9Y463); PLK3 (human) (UniProt Q9H4B4); GAK (human) (UniProt O14976); ROS1 (human) (UniProt P08922); NLK (human) (UniProt Q9UBE8); DCLK1 (human) (UniProt O15075); MAPK7 (human) (UniProt Q13164); PLK1 (human) (UniProt P53350); TNK1 (human) (UniProt Q13470); TTK (human) (UniProt P33981); PIK3CB (human) (UniProt P42338); ZAP70 (human) (UniProt P43403); SLK (human) (UniProt Q9H2G2); RPS6KA2 KD2 (human) (UniProt Q15349); PTK2 (human) (UniProt Q05397); STK33 (human) (UniProt Q9BYT3); ALK (human) (UniProt Q9UM73); MYLK (human) (UniProt Q15746); RPS6KA1 KD2 (human) (UniProt Q15418); PTK2B (human) (UniProt Q14289).

Holding throughout (assay): KINOMEscan competition binding
Common to all, as to conditions: compound 10.0 µM

Test [1] has as its target TYK2 JH2 pseudokinase (human) (UniProt P29597).
Test [2] relates to EGFR (human), P00533 [747-751 del / S ins].
The subject of test [3] is EGFR (human), P00533 [752-759 del].
Test [4] deals with EGFR (human), P00533 [G719C; 746-750 del].
For test [5], the system named is EGFR (human), P00533 [L858R].
Test [6] concerns EGFR (human), P00533 [L861Q].
The subject of test [7] is EGFR (human), P00533 [P753S; 747-752 del].
In test [8] the test system is EGFR (human), P00533 [A750P; 747-749 del].

Sequence of DAPK2 (human) (Q9UIK4 whole entry, looked up): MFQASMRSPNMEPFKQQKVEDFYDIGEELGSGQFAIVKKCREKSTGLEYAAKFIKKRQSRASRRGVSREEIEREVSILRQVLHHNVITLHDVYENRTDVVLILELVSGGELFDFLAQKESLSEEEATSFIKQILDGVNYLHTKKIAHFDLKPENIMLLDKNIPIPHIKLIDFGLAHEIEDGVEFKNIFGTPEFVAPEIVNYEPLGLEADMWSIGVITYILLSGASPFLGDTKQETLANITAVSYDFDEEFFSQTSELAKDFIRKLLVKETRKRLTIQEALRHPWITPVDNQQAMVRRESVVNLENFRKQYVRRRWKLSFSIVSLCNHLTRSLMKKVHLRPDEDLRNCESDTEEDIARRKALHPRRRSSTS
Sequence of TTK (human) (P33981 whole entry, looked up): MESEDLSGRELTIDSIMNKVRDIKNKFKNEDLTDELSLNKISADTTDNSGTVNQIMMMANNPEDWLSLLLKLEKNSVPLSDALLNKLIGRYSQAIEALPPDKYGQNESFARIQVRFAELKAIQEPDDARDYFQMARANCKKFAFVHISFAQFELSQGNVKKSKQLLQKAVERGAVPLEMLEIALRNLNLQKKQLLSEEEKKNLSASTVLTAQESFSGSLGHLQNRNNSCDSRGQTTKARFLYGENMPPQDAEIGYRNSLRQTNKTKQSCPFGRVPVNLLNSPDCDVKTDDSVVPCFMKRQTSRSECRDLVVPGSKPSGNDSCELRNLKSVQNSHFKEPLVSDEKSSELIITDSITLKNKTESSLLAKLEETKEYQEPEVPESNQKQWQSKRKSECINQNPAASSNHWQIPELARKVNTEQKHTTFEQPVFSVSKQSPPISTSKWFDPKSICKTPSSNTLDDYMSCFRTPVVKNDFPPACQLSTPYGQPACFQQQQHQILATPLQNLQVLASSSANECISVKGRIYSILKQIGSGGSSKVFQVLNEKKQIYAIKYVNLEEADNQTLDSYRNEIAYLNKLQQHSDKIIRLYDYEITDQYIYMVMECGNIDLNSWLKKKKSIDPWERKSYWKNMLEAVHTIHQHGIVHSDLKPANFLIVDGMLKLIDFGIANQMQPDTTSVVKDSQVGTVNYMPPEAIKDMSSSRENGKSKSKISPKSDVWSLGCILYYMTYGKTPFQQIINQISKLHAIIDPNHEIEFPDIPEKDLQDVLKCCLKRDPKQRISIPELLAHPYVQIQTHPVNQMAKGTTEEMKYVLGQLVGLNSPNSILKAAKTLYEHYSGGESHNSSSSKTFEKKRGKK
Sequence of RPS6KA4 KD2 (human) (O75676 whole entry, looked up): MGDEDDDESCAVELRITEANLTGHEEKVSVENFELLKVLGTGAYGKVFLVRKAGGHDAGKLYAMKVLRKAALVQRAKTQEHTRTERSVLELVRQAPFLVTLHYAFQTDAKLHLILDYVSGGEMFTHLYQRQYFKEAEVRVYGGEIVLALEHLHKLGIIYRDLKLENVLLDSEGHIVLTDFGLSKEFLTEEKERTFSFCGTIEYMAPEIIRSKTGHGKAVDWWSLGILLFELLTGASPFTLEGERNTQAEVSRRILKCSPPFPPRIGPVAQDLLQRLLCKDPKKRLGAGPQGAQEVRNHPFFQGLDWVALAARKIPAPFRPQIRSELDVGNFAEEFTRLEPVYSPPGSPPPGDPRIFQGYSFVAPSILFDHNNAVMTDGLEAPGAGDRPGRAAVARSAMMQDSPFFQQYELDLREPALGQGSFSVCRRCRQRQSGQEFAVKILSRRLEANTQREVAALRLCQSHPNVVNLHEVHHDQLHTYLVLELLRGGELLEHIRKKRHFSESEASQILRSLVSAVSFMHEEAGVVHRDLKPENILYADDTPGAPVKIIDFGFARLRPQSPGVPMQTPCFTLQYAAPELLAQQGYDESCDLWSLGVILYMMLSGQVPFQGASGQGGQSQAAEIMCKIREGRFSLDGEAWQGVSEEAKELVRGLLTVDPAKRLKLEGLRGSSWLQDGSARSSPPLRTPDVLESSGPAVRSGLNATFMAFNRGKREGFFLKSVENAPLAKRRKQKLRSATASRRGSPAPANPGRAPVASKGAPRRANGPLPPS
Sequence of DAPK1 (human) (P53355 whole entry, looked up): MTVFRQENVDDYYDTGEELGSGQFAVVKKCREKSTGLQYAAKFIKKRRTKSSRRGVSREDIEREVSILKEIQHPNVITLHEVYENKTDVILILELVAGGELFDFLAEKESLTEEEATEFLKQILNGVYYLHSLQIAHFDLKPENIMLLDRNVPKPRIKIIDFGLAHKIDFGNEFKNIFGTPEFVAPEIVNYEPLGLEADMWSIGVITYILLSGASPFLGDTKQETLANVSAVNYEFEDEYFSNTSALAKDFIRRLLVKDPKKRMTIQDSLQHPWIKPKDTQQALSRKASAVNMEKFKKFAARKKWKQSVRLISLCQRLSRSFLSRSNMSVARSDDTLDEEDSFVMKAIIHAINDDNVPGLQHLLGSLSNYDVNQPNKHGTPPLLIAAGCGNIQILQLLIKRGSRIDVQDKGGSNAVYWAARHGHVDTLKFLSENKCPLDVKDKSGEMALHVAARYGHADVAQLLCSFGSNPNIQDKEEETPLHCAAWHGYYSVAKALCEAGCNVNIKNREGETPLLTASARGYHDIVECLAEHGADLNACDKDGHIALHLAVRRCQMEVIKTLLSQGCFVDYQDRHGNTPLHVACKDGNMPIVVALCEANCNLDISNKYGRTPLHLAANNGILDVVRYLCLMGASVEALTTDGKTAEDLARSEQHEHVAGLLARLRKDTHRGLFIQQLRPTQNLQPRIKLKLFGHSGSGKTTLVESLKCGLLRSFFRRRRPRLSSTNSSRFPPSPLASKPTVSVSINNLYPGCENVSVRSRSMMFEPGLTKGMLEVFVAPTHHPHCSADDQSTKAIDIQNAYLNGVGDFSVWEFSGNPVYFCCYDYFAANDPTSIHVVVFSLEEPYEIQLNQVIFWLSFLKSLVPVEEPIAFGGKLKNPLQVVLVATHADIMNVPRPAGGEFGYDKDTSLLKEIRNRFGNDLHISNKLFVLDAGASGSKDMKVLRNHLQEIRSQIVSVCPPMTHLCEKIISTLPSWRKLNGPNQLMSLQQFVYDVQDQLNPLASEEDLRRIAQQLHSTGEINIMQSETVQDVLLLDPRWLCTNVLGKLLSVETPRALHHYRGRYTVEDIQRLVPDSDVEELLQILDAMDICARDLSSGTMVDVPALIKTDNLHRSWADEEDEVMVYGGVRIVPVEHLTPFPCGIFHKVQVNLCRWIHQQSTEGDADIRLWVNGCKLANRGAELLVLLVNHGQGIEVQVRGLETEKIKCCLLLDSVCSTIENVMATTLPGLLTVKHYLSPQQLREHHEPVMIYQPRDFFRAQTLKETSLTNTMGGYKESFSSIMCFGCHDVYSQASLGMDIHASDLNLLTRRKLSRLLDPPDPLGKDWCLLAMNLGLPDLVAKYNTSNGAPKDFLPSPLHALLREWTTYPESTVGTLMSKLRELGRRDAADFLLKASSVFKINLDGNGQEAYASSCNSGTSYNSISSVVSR
Sequence of GAK (human) (O14976 whole entry, looked up): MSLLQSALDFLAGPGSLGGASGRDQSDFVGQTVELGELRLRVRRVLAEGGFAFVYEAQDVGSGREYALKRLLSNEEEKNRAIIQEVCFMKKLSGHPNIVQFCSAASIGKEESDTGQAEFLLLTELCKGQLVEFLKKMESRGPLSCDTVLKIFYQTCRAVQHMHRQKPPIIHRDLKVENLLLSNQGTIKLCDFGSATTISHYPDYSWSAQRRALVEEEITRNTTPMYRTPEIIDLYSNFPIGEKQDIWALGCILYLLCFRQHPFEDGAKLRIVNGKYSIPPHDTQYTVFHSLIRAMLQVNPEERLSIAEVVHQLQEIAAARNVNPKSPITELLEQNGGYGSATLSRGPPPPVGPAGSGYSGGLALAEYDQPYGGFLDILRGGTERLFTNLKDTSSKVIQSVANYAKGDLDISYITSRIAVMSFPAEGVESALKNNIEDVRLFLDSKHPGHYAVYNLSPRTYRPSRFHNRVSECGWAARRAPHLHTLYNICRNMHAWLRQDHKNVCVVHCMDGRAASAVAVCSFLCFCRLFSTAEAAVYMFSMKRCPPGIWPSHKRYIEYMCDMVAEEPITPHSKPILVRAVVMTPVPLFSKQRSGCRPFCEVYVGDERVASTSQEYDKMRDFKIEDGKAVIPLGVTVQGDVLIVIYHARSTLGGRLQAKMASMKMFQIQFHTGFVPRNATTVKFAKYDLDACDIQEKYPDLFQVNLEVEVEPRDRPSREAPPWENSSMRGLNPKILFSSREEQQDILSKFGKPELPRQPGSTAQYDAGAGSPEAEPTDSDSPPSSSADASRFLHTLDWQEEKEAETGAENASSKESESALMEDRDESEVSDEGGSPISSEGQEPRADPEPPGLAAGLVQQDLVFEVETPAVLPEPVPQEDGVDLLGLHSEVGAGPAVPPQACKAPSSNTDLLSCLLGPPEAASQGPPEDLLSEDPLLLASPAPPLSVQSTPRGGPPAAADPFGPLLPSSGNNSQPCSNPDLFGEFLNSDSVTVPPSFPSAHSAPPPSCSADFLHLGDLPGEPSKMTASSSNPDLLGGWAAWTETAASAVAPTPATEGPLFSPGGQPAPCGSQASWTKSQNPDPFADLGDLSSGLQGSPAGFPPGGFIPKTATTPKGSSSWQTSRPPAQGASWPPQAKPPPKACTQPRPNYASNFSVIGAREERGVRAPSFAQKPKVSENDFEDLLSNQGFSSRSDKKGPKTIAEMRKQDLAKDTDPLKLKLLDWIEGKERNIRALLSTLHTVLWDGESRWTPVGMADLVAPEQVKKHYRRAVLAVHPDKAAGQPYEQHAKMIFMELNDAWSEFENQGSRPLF
Sequence of PIM2 (human) (Q9P1W9 whole entry, looked up): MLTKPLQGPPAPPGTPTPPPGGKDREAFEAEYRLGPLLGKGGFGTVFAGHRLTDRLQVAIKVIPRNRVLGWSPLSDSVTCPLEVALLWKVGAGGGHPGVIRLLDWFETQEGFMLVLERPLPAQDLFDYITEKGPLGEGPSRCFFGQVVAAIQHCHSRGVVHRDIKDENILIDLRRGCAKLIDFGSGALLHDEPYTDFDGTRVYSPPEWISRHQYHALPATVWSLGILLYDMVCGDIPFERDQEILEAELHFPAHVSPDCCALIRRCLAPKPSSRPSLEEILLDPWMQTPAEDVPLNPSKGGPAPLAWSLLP

As for `N=C1NC(=O)/C(=C/c2c[nH]c(=O)c(-c3ccc(S(N)(=O)=O)cc3)c2)S1`, the kinase still bound, per cent of control on RPS6KA4 KD2 (human) stood at 0.9%; at CDK7 (human) it was 26%; at CSNK2A1 (human) it was 26%; on CLK3 (human), 3.5%; at MINK1 (human), 24%; at ACVR2A (human), 25%. Moreover, the kinase still bound, per cent of control on CLK4 (human) came out at 28%; on ACVR2B (human) it was 16%; on MAP2K3 (human) it was 2.2%; on DAPK3 (human), 9.4%; on CSNK2A2 (human) it was 25%; at MAPK15 (human) it was 3.3%. For the same molecule, the kinase still bound, per cent of control is 12% on DAPK1 (human); 13% at BMP2K (human); 33% at SRPK3 (human); 12% on PIM3 (human); 24% on PLK4 (human); 16% on CLK1 (human). The kinase still bound, per cent of control on CHUK (human) was 18%; at TAOK1 (human), 4.2%; on CLK2 (human), 5.1%; at BMPR1B (human), 5.7%; at NEK2 (human), 30%; on AAK1 (human) it was 13%. In addition, the kinase still bound, per cent of control at TAOK3 (human) is 22%; at STK17B (human), 28%; at DAPK2 (human), 5.2%; at RIOK1 (human), 31%; at PIP4K2B (human), 22%; on MAP2K4 (human), 24%. The kinase still bound, per cent of control on RPS6KA5 KD2 (human) is 2.2%; on STK17A (human), 23%; at PIM2 (human), 4.8%; on HIPK1 (human), 16%; at RIOK3 (human) it was 17%; on PIM1 (human) it was 16%. In addition, on DYRK1B (human), the kinase still bound, per cent of control came to 23%.

For the molecule `COc1cc(N2CCC(C(N)=O)CC2)ccc1Nc1ncc2c(n1)N(C1CCCC1)[C@@H]1CCC[C@@H]1C(=O)N2C`, the kinase still bound, per cent of control on PLK3 (human) amounted to 4.3%; at GAK (human), 12%; at ROS1 (human), 31%; on NLK (human) it was 31%; at PLK4 (human), 28%; on DCLK1 (human), 15%. Also, the kinase still bound, per cent of control on MAPK7 (human) amounted to 0.1%; on PLK1 (human), 19%; at TNK1 (human) it was 18%; at TTK (human), 10%.

For `O=C1NC(=O)/C(=C/c2cc(-c3ccc(N4CCNCC4)nc3)c[nH]c2=O)S1`, the kinase still bound, per cent of control was 6.2% at PIK3CB (human); 3.2% on RPS6KA4 KD2 (human); 11% on ZAP70 (human); 10% on DAPK3 (human); 4.4% at DAPK1 (human); 30% on PIM3 (human). The kinase still bound, per cent of control in test [1] was 14%; at STK17B (human), 18%; on DAPK2 (human), 10%; on PIM2 (human), 14%.

Consider `COc1cc(C(=O)NC2CCN(C)CC2)ccc1Nc1ncc2c(n1)N(CCc1ccccc1)CCC(=O)N2C`, for which the kinase still bound, per cent of control on PLK3 (human) turned out to be 6.5%; on SLK (human), 22%; in [2], 28%; on GAK (human), 6.4%; in [3], 33%; in test [4] it was 23%. The kinase still bound, per cent of control at RPS6KA2 KD2 (human) worked out at 32%; at PTK2 (human), 34%; on STK33 (human) it was 13%; in test [5], 22%; at ALK (human), 22%; at PLK1 (human) it was 1.9%. Besides, the kinase still bound, per cent of control in [6] was found to be 28%; in [7] it was 31%; on MYLK (human), 31%; on RPS6KA1 KD2 (human), 32%; at TTK (human), 5.2%; in [8], 19%. At PTK2B (human), the kinase still bound, per cent of control is 17%.
